How the values were obtained:
Assay type in all cases: functional
Design in all cases: scale not given: the % may be the effect or the level left
[1] = system: Oryctolagus cuniculus; test: Hypoglycemic activity in glucose-fed rabbit assessed as reduction of plasma glucose at 10 mg/kg, po after 1 hr
[2] = system: Oryctolagus cuniculus; test: Hypoglycemic activity in glucose-fed rabbit assessed as reduction of plasma glucose at 10 mg/kg, po after 2 hrs
[3] = system: Oryctolagus cuniculus; test: Hypoglycemic activity in fasting rabbit assessed as reduction of plasma glucose at 10 mg/kg, po
[4] = system: Oryctolagus cuniculus; test: Hypoglycemic activity in glucose-fed rabbit assessed as reduction of plasma glucose at 10 mg/kg, po after 2.5 hrs
[5] = system: Oryctolagus cuniculus; test: Hypoglycemic activity in glucose-fed rabbit assessed as reduction of plasma glucose at 10 mg/kg, po after 1.5 hrs
[6] = system: Oryctolagus cuniculus; test: Hypoglycemic activity in glucose-fed rabbit assessed as reduction of plasma glucose at 10 mg/kg, po after 0.5 hr
[7] = system: Oryctolagus cuniculus; test: Hypoglycemic activity in rabbit assessed as reduction of plasma glucose at 10 mg/kg, po after 2 hrs
[8] = system: Oryctolagus cuniculus; test: Hypoglycemic activity in glucose-fed rabbit assessed as reduction of plasma glucose at 50 mg/kg, po after 1.5 hrs
[9] = system: Oryctolagus cuniculus; test: Hypoglycemic activity in glucose-fed rabbit assessed as reduction of plasma glucose at 50 mg/kg, po after 2 hrs
[10] = system: Oryctolagus cuniculus; test: Hypoglycemic activity in glucose-fed rabbit assessed as reduction of plasma glucose at 50 mg/kg, po after 0.5 hr
[11] = system: Oryctolagus cuniculus; test: Hypoglycemic activity in glucose-fed rabbit assessed as reduction of plasma glucose at 50 mg/kg, po after 1 hr
[12] = system: Oryctolagus cuniculus; test: Hypoglycemic activity in glucose-fed rabbit assessed as reduction of plasma glucose at 50 mg/kg, po after 2.5 hrs
[13] = system: Oryctolagus cuniculus; test: Hypoglycemic activity in fasting rabbit assessed as reduction of plasma glucose at 50 mg/kg, po
[14] = system: Oryctolagus cuniculus; test: Hypoglycemic activity in rabbit assessed as reduction of plasma glucose at 50 mg/kg, po after 2 hrs

Structure (SMILES)	Activity [1] [mg%]	Activity [2] [mg%]	Activity [3] [mg%]	Activity [4] [mg%]	Activity [5] [mg%]	Activity [6] [mg%]	Activity [7] [%]	Activity [8] [mg%]	Activity [9] [mg%]	Activity [10] [mg%]	Activity [11] [mg%]	Activity [12] [mg%]	Activity [13] [mg%]	Activity [14] [%]
c1ccc(Nc2ccccc2)cc1 [DIPHENYLAMINE]	154.6	71.8	102.2	77.2	80.2	140.2	61.4							
CCCCNC(=O)NS(=O)(=O)c1ccc(C)cc1 [TOLBUTAMIDE]								125.2	104	129	154.3	95.1	104.2	44.1
